Experimental data taken from patent publication US20040170601A1, “Method of improving the growth performance of an animal” (priority 2001, published 2004).
Entries after “also recorded” stand apart in the source; their conditions may differ.

Legend:
haemorrhagic E. coli = experiment: Example 6: haemorrhagic E. coli challenge of weaner pigs; type: in vivo; set-up: decrease in faecal shedding (total faecal culture scores) compared to saline treated controls / reduction in clinical signs compared to saline controls / reduction in E. coli culture scores at post-mortem compared to saline controls / reduction of bacterial load in the small intestine (foregut) compared with saline controls: concentration or dose not given beside the values
Protocol: Male weaner pigs, with a mean weight of 5.4 kg were allocated to groups of 8, with the mean weight being equalised between groups. Pigs were housed in group pens. Pigs were provided with pelleted feed and water ad libitum.
Pigs were treated with cytokines or the antibiotic, Apralan, and challenged with E. coli according to the schedule outlined in FIG. 42. E. coli were delivered orally in an 8 ml dose containing 10^8 cfu/ml. Blood was sampled from pigs by venipuncture at −2 days, day 0, and +6 days from initial challenge with E. coli as outlined in FIG. 42. Blood was assayed for immunological parameters as previously described. Pigs were weighed at day −2 and at the end of the trial on day 7.
Faecal samples were taken from each pig daily from day 2 to day 6 after challenge; these samples were cultured on sheep blood agar to quantify E. coli load. The condition of faeces on each day of challenge was noted as normal, wet or diarrhoea, as an indication of clinical signs.
At the conclusion of the experiment, pigs were euthanased and samples were taken from different areas in the gastro-intestinal tract, including the small intestine (25%, 50% and 75% along the length of the small intestine), the caecum and colon, and from the faeces. These post-mortem samples were also plated out on sheep blood agar to quantify E. coli load. Growth on sheep blood agar was scored from 0 to 5 (where 0 was no growth, 1 signified growth in the primary inoculum, 2 signified growth in the first streak, 3 signified growth in the 2nd streak, 4 signified growth in the 3rd streak, and 5 signified growth of E. coli in the final streak), and group means and standard errors were calculated.

[1] = tested on: Actinobacillus pleuropneumoniae; experiment: Example 12: Actinobacillus pleuropneumoniae (App) challenge: growth, clinical signs, lung pathology; type: in vivo, pigs
Excerpt: The following experiment was designed to determine whether IL-4 could improve the growth of immunologically challenged pigs compared to saline treated controls and positive controls treated with the non-steroidal anti-inflammatory drug (NSAID) Flunix. It was also devised to determine whether IL-4 could be delivered via plasmids.
Male pigs, with a mean starting weight of 52 kg, were allocated to 5 treatment groups (Table 8). Pigs were housed in group pens, with each pen containing a replicate from each of the treatment groups. Pigs were provided with pelleted feed and water ad libitum.
Recombinant IL-4 and saline were administered as 2 ml doses, given subcutaneously behind the ear. Plasmids were administered in 1 ml doses, given intramuscularly in the hind-leg. Flunix was administered as a 2 ml dose according to the manufacturer's instructions, and delivered intramuscularly in the neck. The timetable of administration is outlined in Table 9 below.
(§1) Due to the intermittent availability of Actinobacillus pleuropneumoniae (App), the App challenge was performed separately on the 2 rooms, resulting in different time schedules for each room, as outlined in Table 9. Prior to each challenge, pigs were treated with recombinant cytokines, flunix or plasmids as described above; the timing of treatments with respect to challenge is described in Table 9. Pigs were anaesthetised and infected intratracheally with 7.5×10^5 […] on day 0.
(§2) Briefly, assays were performed on blood samples using standard techniques, including: white blood cell counts performed using an automated cell counter; differential cell counts performed manually on stained blood smears; lymphocyte subset enumeration via flow cytometry; neutrophil function determined by flow cytometry; lymphocyte proliferation determined using a thymidine incorporation assay in response to mitogens; total IgG and IgA levels were identified using indirect sandwich ELISA; levels of mRNA for pro-inflammatory cytokines was detected by RT-PCR. TNF levels were additionally measured in serum by bioassay using L929 target cells. Pigs were weighed weekly from delivery of plasmids and for 2 weeks after challenge.
IL-4 delivered as a recombinant caused a reduction of 36% in the presence of clinical symptoms compared to pigs treated with saline, while IL-4 delivered in plasmid form produced a reduction of 62% compared to saline-treated controls (45% reduction compared to plasmid-treated controls).
At the conclusion of the trial, pigs were euthanased and the lungs removed for post-mortem examination. Lungs were scored for pleurisy from 0-5 (FIG. 79) and the degree of pleuropneumonia was determined by weighing affected lung and expressed as a percentage of total lung weight (FIG. 80).

TNFα = experiment: Example 12: TNFα in serum after App challenge (bioassay, L929 target cells); type: in vivo, pigs; settings: day 13 after challenge
Protocol: as §1
[…] Blood was assayed for immunological parameters as previously described.
as §2

[2] = cited from earlier work
[3] = tested on: Brachyspira (Serpulina) hyodysenteriae; experiment: Example 7: swine dysentery challenge, IL-5 prophylactic; type: in vivo, pigs
Excerpt: (§3) One aim of this example was to determine whether IL-5 could improve the health of pigs infected with an enteric inflammatory pathogen causing swine dysentery, Brachyspira (Serpulina) hyodysenteriae. A further aim was to determine whether IL-5 could improve the growth rate of pigs under conditions of challenge with swine dysentery.
(§4) Male pigs with a mean starting weight of 6.5 kg, were allocated to treatment groups consisting of eight pigs (Table 6). Pigs were housed in group pens, with each pen containing a replicate from each of the treatment groups. One group of 8 pigs was housed in a separate room and left uninfected to act as untreated controls. Pigs were provided with pelleted feed and water ad libitum.
(§5) Prior to swine dysentery challenge, pigs were treated with recombinant IL-5 or saline, as described in Table 6. Cytokines and the antibiotic, Lincomycin, were delivered by intramuscular injection at intervals outlined in Table 7. Pigs were infected with Brachyspira hyodysenteriae at day 0, day 1 and day 2, given as an oral bolus of 120 ml of spirochaete culture in log phase of growth, containing approximately […].
(§6) Faecal swabs and blood samples were taken from each pig at intervals described in Table 7. Faecal swabs were cultured for the presence of spirochaetes. Blood samples were assayed for immunological parameters as described in example 1 above. Pigs were weighed at weekly intervals throughout the experiment, which was terminated by euthanasia on days 19 and 20 after the initial challenge. At post mortem swabs from areas of the hindgut were cultured for the presence of spirochaetes, and the gross pathological condition of the gastro-intestinal tissue noted.

[4] = tested on: Brachyspira (Serpulina) hyodysenteriae; experiment: Example 13: swine dysentery challenge, IL-4 prophylactic; type: in vivo, pigs
Excerpt: as §3, with “The” for “One”, “IL-4” for “IL-5”
as §4, with “10).” for “6).”
as §5, with “IL-4” for “IL-5”, “10.” for “6.”, “Lincocin,” for “Lincomycin,”, “11.” for “7.”, “120ml” for “120 ml”
as §6, with “11.” for “7.”

Structure (SMILES): CN[C@@H]1[C@@H](O[C@H]2O[C@H](CO)[C@@H](N)[C@H](O)[C@H]2O)OC2C[C@@H](N)[C@@H](O[C@H]3[C@H](O)[C@@H](O)[C@H](N)C[C@@H]3N)OC2[C@@H]1O (stereo partly drawn) [Apralan, reference compound]
- clinical signs (wet faeces or diarrhoea) (haemorrhagic E. coli; 5 days after challenge): less recordings of wet faeces than did saline controls, but also displayed a minor increase in the prevalence of diarrhoea
- E. coli shedding in faeces (faecal culture) (haemorrhagic E. coli; day 2 to day 6 after challenge): decreased E. coli shedding in faeces; also recorded: least bacterial shedding of all treatments
- decrease in faecal shedding (total faecal culture scores) compared to saline treated controls (haemorrhagic E. coli; entire challenge period): 80%
- appetite (daily feed intake per pig) during E. coli challenge (haemorrhagic E. coli; pig, in vivo): improved appetite compared to saline treated pigs
- bacterial load in areas of the gastro-intestinal tract at post-mortem (haemorrhagic E. coli; pig, in vivo): reduced bacterial load in most areas of the gastro-intestinal tract
- group mean total E. coli culture score at post-mortem (out of a possible 30) (haemorrhagic E. coli; pig, in vivo): 12
- reduction in clinical signs compared to saline controls (haemorrhagic E. coli; pig, in vivo): 27%
- bacterial loads in the hindgut area (caecum and colon) (haemorrhagic E. coli; post-mortem): lowest of all treatments
- reduction of bacterial load in the small intestine (foregut) compared with saline controls (haemorrhagic E. coli; post-mortem): 32%

Structure (SMILES): CNC[C@H](O)[C@@H](O)[C@H](O)[C@H](O)CO.Cc1c(Nc2ncccc2C(=O)O)cccc1C(F)(F)F [flunix, reference compound]
- growth during the (first) week of App challenge ([1]; pig, in vivo): weight loss
- growth in the second week of challenge ([1]; pig, in vivo): poorest growth of all groups in the second week of challenge
- pleurisy at necropsy (score 0-5) ([1]; pig, in vivo): less pleurisy than the saline controls
- weight gain over the 2 week period following challenge with App ([1]; pig, in vivo): lowest growth over the 2 week challenge period
- weight gain over the 2 week period following challenge with App ([1]; pig, in vivo, listed as Flunix): poorest performing treatment in terms of growth
- percentage of lung affected by App lesions ([1]; vs saline-treated controls): greatly reduced
- TNFα production (serum) (TNFα): failed to inhibit the production of TNFα

Structure (SMILES): CC(=O)OC/C=C(C)/C=C/C=C(C)/C=C/C1=C(C)CCCC1(C)C [Retinyl acetate]
- IL-5 level and IL-4- and IL-5-containing cells in small intestinal mucosa ([2]; mice fed low-protein diet, 1 mg): significantly restored the IL-5 level and the number of IL-4- and IL-5-containing cells
- anti-CT IgA level in intestinal mucosa ([2]; mouse, in vivo): prevented the decline of anti-CT IgA level in the protein-deficient mice

Structure (SMILES): CCC[C@@H]1C[C@@H](C(=O)N[C@@H]([C@H]2O[C@H](SC)[C@H](O)[C@@H](O)[C@H]2O)[C@@H](C)O)N(C)C1 [Lincocin, Lincomycin, reference compound]
- spirochaete shedding in faeces (faecal culture) ([3]; after challenge): no signs of faecal spirochaete shedding by day 14
- reduction in the number of spirochaetes compared to saline treated pigs ([3]; anterior colon, post mortem): 89%
- reduction in the number of spirochaetes compared to saline treated pigs ([3]; caecum, post mortem): 93%
- reduction in the number of spirochaetes compared to saline treated pigs ([3]; faecal, post mortem): 100%
- incidence of clinical signs in faeces (of 8 pigs) ([3]; post mortem): one
- reduction in the number of spirochaetes compared to saline treated pigs ([3]; posterior colon, post mortem): 88%
- spirochaete shedding in faeces (faecal culture) ([4]; after challenge): no signs of faecal spirochaete shedding by day 14
- gross pathology associated with dysentery ([4]; anterior colon, post mortem): reduced the incidence of pathological symptoms in anterior and posterior colon
- total weight gained over the challenge period ([4]; day 7 prior to challenge to slaughter at days 19 and 20): 6.9 kg
- mean weight at the end of the trial ([4]; days 19 and 20 after infection): 12.2 kg
- incidence of clinical signs in faeces (of 8 pigs) ([4]; post mortem): one
- gross pathology associated with dysentery ([4]; posterior colon, post mortem): reduced the incidence of pathological symptoms in anterior and posterior colon
